Assay results taken from patent US4567192A, “Acylaminophenol derivatives” (Sandoz Ltd., priority 1983, dated 1986).

Assays:
[1] = system: inflamed rat hind-paw; assay: Test II: Randall-Selitto Test on the inflamed rat hind-paw; assay type: in vivo; details: po
From the text: (II) The Randall-Selitto Test on the inflamed rat hind-paw (Arch. Int. Pharmacodyn. 61, 409-419, 1957).
(§1) As previously indicated, required daily dosages will depend inter al. on the particular compound of the invention employed. Results obtained for the compounds (L)-(4-acetamido-phenyl)-2-oxo-thiazolidine-4-carboxylate (compound A) in accordance with the present invention and the known analgesic paracetamol (compound B) in tests I and II above are shown in the following table.

[2] = system: GPT (Glutamate-Pyruvate-Transaminase); assay: Hepatoxicity: GPT (Glutamate-Pyruvate-Transaminase) level in mouse serum; assay type: in vivo
Procedure: (§2) Thus on administration of 1'000 mg/kg p.o. of COMPOUND A in accordance with the invention to mice, no increase in GOT and GPT levels over levels in untreated controls (40 to 80 units/liter) is observed and no deaths are recorded. In contrast on administration of compound B (paracetamol) at a dosage of 560 mg/kg p.o., GOT levels are elevated to 3'800 units/liter and GPT levels are elevated to 3'000 units and on administration of compound B at a dosage of 1'000 mg/kg p.o., death of 2 out of 5 test animals is recorded.

[3] = Deaths after oral administration to mice; assay type: in vivo, mouse; details: 1'000 mg/kg p.o.
[4] = system: GOT (Glutamate-Oxalacetate-Transaminase); assay: Hepatoxicity: GOT (Glutamate-Oxalacetate-Transaminase) level in mouse serum; assay type: in vivo
Procedure: as §2

[5] = Test I: arthritis pain test (method of A. W. Pircio et al.); assay type: in vivo; details: po
From the text: (I) The arthritis pain test (based on the method of A. W. Pircio et al., Eur. J. Pharmacol. 31, 207-215, 1975); and
as §1

[6] = high dosages, cited from earlier work
[7] = mice, 1'000 mg/kg p.o., untreated controls 40 to 80 units/liter

Compound	ED50 [1] [mg/kg]	increase in GPT levels over levels in untreated controls [2, 7]	deaths [3]	increase in GOT levels over levels in untreated controls [4, 7]	ED50 ([5]; 1 hr.) [mg/kg]	ED50 ([5]; 3 hrs.) [mg/kg]	ED50 ([5]; 5 hrs.) [mg/kg]	death ([6]; following liver damage)	damage of the liver [6]	GPT levels ([2]; mouse, in vivo, po, 560 mg/kg)	death of test animals [3]	GOT levels ([4]; mouse, in vivo, po, 560 mg/kg)
CC(=O)Nc1ccc(OC(=O)[C@@H]2CSC(=O)N2)cc1 [COMPOUND A, (L)-(4-acetamido-phenyl)-2-oxo-thiazolidine-4-carboxylate]	310	no increase	no deaths	no increase	~162	162	264					
CC(=O)Nc1ccc(O)cc1 [COMPOUND B, N-(4-hydroxyphenyl)acetamide]	203				75	142	261	may lead to death	extensive damage of the liver	3'000 units	2 out of 5	3'800 units/liter
